Test results: article PMC8994094 (Molecular Diversity, 2022)
Where “and” joins values, the source holds several entries; their conditions need not be identical. Equal entries are not always repeated.

Experiments:
[1] = tested on: cortex neuron cells and neuroblastoma SH-SY5Y cell line; assay: MTT cytotoxicity test; format: cell-based; settings: for cell viability at low concentrations: at 10 and 100 μM; for toxicity at effective concentrations on target enzymes: effective concentrations on AChE and hCAs
hCA II = hCA II (Homo sapiens, UniProt P00918); assay: hCA II esterase activity/kinetic assay; format: biochemical; settings: for hCA II Inhibition type: Lineweaver-Burk; for Selectivity index AAZ/hCA II: ratio of KI of acetazolamide to KI of compound; for Selectivity index hCAI/hCA II: ratio of KI values
[2] = molecular target: AChE from Electrophorus electricus (Electrophorus electricus, UniProt O42275); assay: AChE activity/kinetic assay; format: biochemical; settings: for AChE Inhibition type: Lineweaver-Burk; for Selectivity index THA/AChE: ratio of KI of tacrine to KI of compound
hCA I = hCA I (Homo sapiens, UniProt P00915); assay: hCA I esterase activity/kinetic assay; format: biochemical; settings: for hCA I Inhibition type: Lineweaver-Burk; for Selectivity index AAZ/hCA I: ratio of KI of acetazolamide to KI of compound; for Selectivity index hCA II/hCA I: ratio of KI values
Sequence of hCA I (P00915 whole entry): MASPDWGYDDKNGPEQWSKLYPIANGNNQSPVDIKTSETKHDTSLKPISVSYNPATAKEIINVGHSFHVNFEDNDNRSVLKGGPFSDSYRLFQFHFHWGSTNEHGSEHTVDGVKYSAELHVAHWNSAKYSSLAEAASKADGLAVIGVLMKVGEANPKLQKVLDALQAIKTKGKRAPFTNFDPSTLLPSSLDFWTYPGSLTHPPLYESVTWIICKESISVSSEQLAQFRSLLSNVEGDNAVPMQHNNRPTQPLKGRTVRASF

Sequence of AChE from Electrophorus electricus (O42275 24-633): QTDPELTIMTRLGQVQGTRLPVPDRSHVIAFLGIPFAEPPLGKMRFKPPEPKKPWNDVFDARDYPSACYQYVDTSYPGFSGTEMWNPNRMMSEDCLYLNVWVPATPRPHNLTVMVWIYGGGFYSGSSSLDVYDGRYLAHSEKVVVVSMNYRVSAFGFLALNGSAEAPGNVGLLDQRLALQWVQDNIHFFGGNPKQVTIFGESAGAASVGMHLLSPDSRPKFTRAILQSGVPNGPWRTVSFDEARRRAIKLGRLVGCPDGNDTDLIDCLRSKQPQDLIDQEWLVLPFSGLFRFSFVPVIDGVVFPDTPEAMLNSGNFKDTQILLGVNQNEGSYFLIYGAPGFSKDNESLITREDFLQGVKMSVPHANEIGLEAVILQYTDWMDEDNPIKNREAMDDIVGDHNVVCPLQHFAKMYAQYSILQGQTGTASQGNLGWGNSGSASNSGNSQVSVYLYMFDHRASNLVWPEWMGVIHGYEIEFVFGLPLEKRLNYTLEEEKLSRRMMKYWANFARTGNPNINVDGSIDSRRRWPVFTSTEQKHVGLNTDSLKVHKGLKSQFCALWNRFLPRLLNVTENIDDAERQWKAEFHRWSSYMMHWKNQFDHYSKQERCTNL

| Compound | cell viability at low concentrations [1] | toxicity at effective concentrations on target enzymes [1] | Ki (hCA II) [nM] | hCA II Inhibition type (hCA II) | Selectivity index AAZ/hCA II (hCA II) | Selectivity index hCAI/hCA II (hCA II) | Ki [2] [nM] | AChE Inhibition type [2] | Selectivity index THA/AChE [2] | Ki (hCA I) [nM] | hCA I Inhibition type (hCA I) | Selectivity index AAZ/hCA I (hCA I) | Selectivity index hCA II/hCA I (hCA I) |
| --- | --- | --- | --- | --- | --- | --- | --- | --- | --- | --- | --- | --- | --- |
| CCSc1nnc(-c2ccc(S(=O)(=O)NC(=O)c3ccccc3)cc2)o1 [6a, N-([4-(5-(ethylthio)-1,3,4-oxadiazol-2-yl)phenyl]sulfonyl)benzamide] | high cell viability | non-toxic | 9.33 ± 0.13 | Competitive | 10.5 and 10.53 | 2.32 | 52.5 ± 1.27 | Competitive | 2.96 | 21.6 ± 0.25 | Competitive | 20.29 | 0.43 |
| CCSc1nnc(-c2ccc(S(=O)(=O)NC(=O)c3ccc(C)cc3)cc2)o1 [6b, N-([4-(5-(ethylthio)-1,3,4-oxadiazol-2-yl)phenyl]sulfonyl)-4-methylbenzamide] |  |  | 17.8 ± 0.23 | Competitive | 5.51 | 3.34 | 47 ± 1.71 | Competitive | 3.30 | 59.62 ± 0.53 | Noncompetitive | 7.37 | 0.30 |
| CCCC(=O)NS(=O)(=O)c1ccc(-c2nnc(SCC)o2)cc1 [6d, N-([4-(5-(ethylthio)-1,3,4-oxadiazol-2-yl)phenyl]sulfonyl)butyramide] | high cell viability | non-toxic | 23.2 ± 0.26 | Competitive | 4.24 | 0.81 | 48.4 ± 1.75 | Competitive | 3.21 | 18.7 ± 0.21 | Competitive | 23.5 and 23.54 | 1.24 |
| CCCCC(=O)NS(=O)(=O)c1ccc(-c2nnc(SCC)o2)cc1 [6e, N-([4-(5-(ethylthio)-1,3,4-oxadiazol-2-yl)phenyl]sulfonyl)pentanamide] |  |  | 37.24 ± 0.14 | Competitive | 2.64 | 1.27 | 41.2 ± 0.95 | Noncompetitive | 3.77 | 47.15 ± 0.36 | Competitive | 9.31 | 0.79 |
| CCCCCC(=O)NS(=O)(=O)c1ccc(-c2nnc(SCC)o2)cc1 [6f, N-([4-(5-(ethylthio)-1,3,4-oxadiazol-2-yl)phenyl]sulfonyl)hexanamide] |  |  | 29.19 ± 0.1 | Competitive | 3.37 | 1.13 | 39.3 ± 1.13 | Competitive | 3.95 | 33.1 ± 0.47 | Competitive | 13.27 | 0.88 |
| CCCCCCC(=O)NS(=O)(=O)c1ccc(-c2nnc(SCC)o2)cc1 [6g, N-([4-(5-(ethylthio)-1,3,4-oxadiazol-2-yl)phenyl]sulfonyl)heptanamide] |  |  | 30.71 ± 0.09 | Competitive | 3.20 | 0.75 | 49.7 ± 2.13 | Competitive | 3.12 | 23 ± 0.29 | Competitive | 19.09 | 1.33 |
| CCCCCCCC(=O)NS(=O)(=O)c1ccc(-c2nnc(SCC)o2)cc1 [6h, N-([4-(5-(ethylthio)-1,3,4-oxadiazol-2-yl)phenyl]sulfonyl)octanamide] | high cell viability | non-toxic | 120.8 ± 0.34 | Noncompetitive | 0.81 | 0.29 | 23.1 ± 0.77 | Competitive | 6.7 and 6.72 | 34.6 ± 0.51 | Competitive | 12.69 | 3.49 |
| CCCCCCCCC(=O)NS(=O)(=O)c1ccc(-c2nnc(SCC)o2)cc1 [6i, N-([4-(5-(ethylthio)-1,3,4-oxadiazol-2-yl)phenyl]sulfonyl)nonanamide] |  |  | 112.7 ± 0.36 | Competitive | 0.87 | 0.34 | 47.6 ± 1.75 | Competitive | 3.27 | 38.4 ± 0.46 | Competitive | 11.44 | 2.93 |
| CCCCCCCCCCCC(=O)NS(=O)(=O)c1ccc(-c2nnc(SCC)o2)cc1 [6j, N-([4-(5-(ethylthio)-1,3,4-oxadiazol-2-yl)phenyl]sulfonyl)dodecanamide] |  |  | 29.4 ± 0.13 | Competitive | 3.34 | 1.05 | 46.7 ± 1.64 | Competitive | 3.33 | 31 ± 0.41 | Competitive | 14.16 | 0.95 |
